Residues, ends and D or L forms follow the SMILES beside them. *: point of attachment. Palmitoyl = CCCCCCCCCCCCCCCC(=O)*
Assay: Gel state after standing overnight and affinity with water (Example 1)
Format: physicochemical
Set-up: key to Affinity with water by addition of milliQ water: a sample ascertained to have the affinity with water is evaluated as ∘; a sample ascertained to have no affinity with water is evaluated as x
Procedure: N-Palmitoyl-Gly-His synthesized above was dissolved in a 50 mM phosphate buffer solution (pH 7.5) so as to give a concentration of 1% (w/w) in a closed system at 100° C. To the solution, gum arable (Wako Pure Chemical Industries, Ltd.) was added dropwise so as to give a concentration of 10% (w/w) so as to form gel. From the formed gel, 200 μl of the gel was taken and dropped onto a glass petri dish. The gel was left overnight and then observed. To the gel after standing overnight, milliQ water was dropped, and the affinity with water was observed. Also, PVA (manufactured by Wako Pure Chemical Industries, Ltd., n=1,500 to 1,800) at a concentration of 10% (w/w) was added dropwise, in place of the gum arabic, so as to form gel. Then, the gel was subjected to the same procedure, and the gel after standing overnight was observed.
For comparison, gum arable alone or PVA alone was used without using N-palmitoyl-Gly-His and was dropped onto a glass petri dish in a similar manner. Then, each sample was left overnight and then observed in a similar manner.
From the observation results, a sample ascertained to have the affinity with water is evaluated as ∘, and a sample ascertained to have no affinity with water is evaluated as x.

- Change in gel state after standing overnight (200 μl dropped onto a glass petri dish, left overnight): White gel
- Affinity with water by addition of milliQ water (gel after standing overnight, milliQ water dropped): ∘
Compound: CCCCCCCCCCCCCCCC(=O)NCC(=O)N[C@@H](Cc1c[nH]cn1)C(=O)O [N-palmitoyl-Gly-His] (Palmitoyl-Gly-His-OH)
